Reference: US12600732B2, “Bifunctional compounds for degrading BTK via ubiquitin proteosome pathway” (NURIX THERAPEUTICS, INC., priority 2019, dated 2026)
Read-outs that look alike come from different tables or passages of the source.

Columns and labels:
[1] = tested on: B cell receptor (BCR) signaling; assay: B cell activation assay (flow cytometry), mouse B cells; format: cell-based; conditions: treatment 4 h, IgM stimulation 18 h
Method: Compound was present throughout the stimulation. Cells were stained with Live/Dead dye (Fisher L34976) and then fluorophore-conjugated antibodies against CD20 (Biolegend 302330), CD3 (BD Pharmingen 557705), CD86 (Biolegend 305416) and CD69 (Biolegend 310906). Stained cells were fixed in PFA and run on an Attune N×T Acoustic Focusing Flow Cytometer (Thermo-Fisher A29004), and data was analyzed using FlowJo (v10.5.3) and GraphPad Prism (v7.00) software. Single live lymphocytes were gated for B cells (CD20+CD3−) and T cells (CD3+CD20−), and the geometric mean fluorescence intensity (MFI) of CD86 and CD69 was calculated for each population. The MFI of the unstimulated sample was used to quantify baseline activation.
This example evaluates whether CTM treatment affects B cell receptor (BCR) signaling. BTK is activated downstream of the B cell receptor and leads to upregulation of activation markers CD86 and CD69 on the surface of B cells.

TMD8 C481S cells = assay: Cell viability assay (CellTiter-Glo), TMD8 C481S cells; conditions: for EC50: Homo sapiens, TMD8, 72 h; for EMAX (% viable cells): TMD8 C481S cells, treatment time 72 h
TMD8 cells = assay: Cell viability assay (CellTiter-Glo), TMD8 cells; conditions: for EC50: Homo sapiens, TMD8, 72 h; for EMAX (% viable cells): TMD8 cells, treatment time 72 h
Method: Cell viability was determined using CellTiter-Glo 2.0 Luminescent Cell Viability Assay (Promega, G9242), which quantitates the amount of ATP present as a proxy for the number of viable cells in culture. Cells were plated with densities between 2000-4000 cells per well in 96-well plates. […] CellTiter-Glo reagent was added to cells at a dilution of 1:20, and the plate was incubated ten minutes at room temperature prior to reading the luminescence signal using an EnVision plate reader. Controls included cells treated with DMSO and wells that contained no cells, only media. Background luminescence signal was determined by control wells containing no cells, only media, and was then subtracted from all sample wells. Luminescence values were then normalized to DMSO-treated wells and reported at proportion viable cells.
Here, the ability of CTMs to affect viability in BTK-dependent cell lines was assessed.

primary human T cells [2] = assay: T cell activation assay, CD25 and CD69 staining (flow cytometry); format: cell-based; conditions: for CD25 Staining Anti-CD3/Anti-CD28 Stimulation / CD69 Staining Anti-CD3/Anti-CD28 Stimulation: fold-change of response relative to baseline
Method: (§1) This example evaluates whether CTMs with IMiD activity affect T cell activation. […] These assays were performed to assess whether BTK CTMs with and without IMiD activity affected activation of primary human T cells after stimulation of the T cell receptor with anti-CD3/ati-CD28 stimulation. T cell activation was measured by IL-2 secretion (ELISA assay) and upregulation of activation markers CD25 and CD69 on the surface of T cells (flow cytometry). Data are presented as the fold-change of response relative to baseline (stimulation with anti-CD3/anti-CD28 stimulation in the absence of compound).

primary human T cells [3] = assay: T cell activation assay, IL-2 secretion (ELISA); format: cell-based
Method: as §1

Ikaros = biological target: T1, Ikaros (Homo sapiens, UniProt Q13422+Q96SW2); assay: Ikaros degradation in Mantle Cell Lymphoma lines (flow cytometry); format: cell-based; conditions: treatment time 24 h
T1 construct: endogenous in cells; host or cells: Mino, Rec-1
Excerpt: (§2) Ikaros and Aiolos Degradation in Mantle Cell Lymphoma Lines (Ikaros and Aiolos Flow Cytometry)
(§3) This example evaluates the IMiD activity of CTMs in cellular models of Mantle Cell Lymphoma (MCL). […] These assays are to determine potency of CTMs for degrading IMiD neo-substrates in cellular models of MCL and to generate data to inform efficacy studies in MCL xenografts.

Aiolos = biological target: T2, Aiolos (Homo sapiens, UniProt Q96SW2+Q9UKT9); assay: Aiolos degradation in Mantle Cell Lymphoma lines (flow cytometry); format: cell-based; conditions: treatment time 24 h
T2 construct: endogenous in cells; host or cells: Mino, Rec-1
Excerpt: as §2, §3

[4] = PK data for BTK CTMs (in vivo plasma concentrations); conditions: Mouse Balb/c; for Vd: read-out: Volume of Distribution
Excerpt: The present example evaluates in vivo plasma concentrations of BTK CTMs to develop PK-PD-efficacy relationship and predict human exposure.

BTK = biological target: T3, BTK (Mus musculus, UniProt P35991); assay: In vivo degradation of BTK in mouse PD experiments with oral dosing
T3 construct: from tissue; host or cells: mouse blood B cells / splenocytes (CD-1 or BALB/c)
Summary of the method: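 BTK in blood or splenocytes read by flow cytometry (or HTRF), degradation taken as B-cell minus T-cell BTK MFI versus vehicle. Mice (CD-1 or BALB/c) received compound orally, initially 90 mg/kg for 6 h, then lower doses and longer time points.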

BTK C481S = BTK C481S (Homo sapiens, UniProt Q06187, C481S); assay: BTK degradation (Total BTK HTRF) in TMD8 cells expressing BTK-C481S; format: cell-based; set-up: endogenous in cells; host or cells: TMD8 BTK-C481S (clone2C3), Cas9 RNP knock-in; conditions: TMD8 BTK-C481S (clone2C3) cells, treatment time 4 h
Method: BTK levels were determined using Cisbio Total-BTK HTRF (Homologous Time-Resolved Fluorescence) kit (63ADK064PEG) according to the manufacturer's protocol. Briefly, cells were incubated in 1× supplied lysis buffer for 30 minutes. In an opaque white low volume 96-well plate (Cisbio, 66PL96005), cell lysate was combined with two different specific BTK antibodies, one conjugated with Eu^3+-Cryptate FRET donor and one conjugated with d2 FRET acceptor. Assay controls include wells containing cell lysate with only the Eu^3+-Cryptate FRET donor antibody and wells containing both HTRF antibodies and lysis buffer without cells or control lysate provided by Cisbio. HTRF ratio was calculated as (acceptor signal at 665 nm/donor signal at 620 nm)×10^4. Background HTRF levels were determined from the control well containing the donor, but no acceptor, antibody. Background HTRF levels were subtracted from all samples. Readouts were reported as HTRF levels relative to HTRF levels of DMSO-treated cells. Four-parameter non-linear regressions were performed in GraphPad Prism 7.02 to obtain DC50 values.
BTK Degradation (Total BTK HTRF) at Four Hours in TMD8 Cells Expressing BTK-C481S
This example evaluates the potency of CTM in degrading […]. The BTK binding moieties utilized in CTMs bind to the BTK active site. This example evaluates whether the active site mutation C481S affects CTM-induced degradation of BTK.

[5] = 1.4 nM, fold-change of response relative to baseline
[6] = 37 nM, fold-change of response relative to baseline
[7] = 333 nM, fold-change of response relative to baseline (stimulation without compound)
[8] = oral dose 30 mg/kg, 24 h, splenocytes, HTRF

## O=C(c1ccc(Oc2ccccc2)cc1Cl)c1c[nH]c2ncnc(N[C@@H]3CC[C@@H](CO)OC3)c12 [ARQ531]
[1]; read-out: CD69 EC50
  EC50: 50 nM
[1]; read-out: CD86 EC50
  EC50: 70 nM
TMD8 C481S cells
  EC50: 100 nM
  EMAX (% viable cells): 17%
TMD8 cells
  EC50: 100 nM
  EMAX (% viable cells): 16%

## CN1CCN([C@@H]2CCCN(c3cnc(C(N)=O)c(Nc4ccc(C5CCN(C(=O)CCOCCNc6cccc7c6C(=O)N(C6CCC(=O)NC6=O)C7=O)CC5)cc4)n3)C2)C1=O (some centres unmarked) [Compound 25]
Primary human T cells [2]; 1.4 nM
  CD25 Staining Anti-CD3/Anti-CD28 Stimulation: 1.25
  CD69 Staining Anti-CD3/Anti-CD28 Stimulation: 1.18
Primary human T cells [2]; 37 nM
  CD25 Staining Anti-CD3/Anti-CD28 Stimulation: 1.30
  CD69 Staining Anti-CD3/Anti-CD28 Stimulation: 1.33
Primary human T cells [2]; 333 nM
  CD25 Staining Anti-CD3/Anti-CD28 Stimulation: 1.39
  CD69 Staining Anti-CD3/Anti-CD28 Stimulation: 1.39
Primary human T cells [2]; primary human T cells
  expression of CD25 and CD69 compared to baseline (anti-CD3/anti-CD28 stimulation alone): unchanged or decreased levels
Primary human T cells [3]; [5]
  IL-2 Secretion Anti-CD3/Anti-CD28 Stimulation: 2.42
Primary human T cells [3]; [6]
  IL-2 Secretion Anti-CD3/Anti-CD28 Stimulation: 3.35
Primary human T cells [3]; [7]
  IL-2 Secretion Anti-CD3/Anti-CD28 Stimulation: 3.86
Primary human T cells [3]; primary human T cells
  IL-2 secretion compared to baseline (anti-CD3/anti-CD28 stimulation alone): increased IL-2 secretion but not to the level observed with IMiDs
Ikaros; Mino cells
  DC50: 29 nM
Ikaros; Rec-1 cells
  DC50: 63 nM
Aiolos; Mino cells
  DC50: 10 nM
Aiolos; Rec-1 cells
  DC50: 31 nM

## CN1CCN([C@@H]2CCCN(c3cnc(C(N)=O)c(Nc4ccc(C5CN(CC6CCN(c7ccc8c(=O)n(C9CCC(=O)NC9=O)ccc8c7)CC6)C5)cc4)n3)C2)C1=O (some centres unmarked) [Compound 69]
[4]; 1 mg/kg IV
  AUC: 0.68 µM·h
  clearance: 31.4 mL/min/kg
  Vd: 2.2 L/kg
[4]; 10 mg/kg PO
  AUC: 0.078 µM·h
  bioavailability: 1%
[1]; read-out: CD69 EC50
  EC50: 0.1 nM
[1]; read-out: CD86 EC50
  EC50: 0.3 nM
BTK; oral dose 0.3 mg/kg, 24 h, blood, flow cytometry
  % BTK Remaining: 112%
BTK; oral dose 3 mg/kg, 24 h, blood, flow cytometry
  % BTK Remaining: 43%
BTK; oral dose 30 mg/kg, 24 h, blood, flow cytometry
  % BTK Remaining: 30%
BTK; [8]
  % BTK Remaining: 33%
BTK C481S
  DC50: 0.8 nM

## NC(=O)c1ncc(N2CCC[C@H](N3CCOC3=O)C2)nc1Nc1ccc(N2CCC(C3CN(c4ccc5c(c4)C(=O)N(C4CCC(=O)NC4=O)C5=O)C3)CC2)cc1 (some centres unmarked) [Compound 70]
BTK; [8]
  % BTK Remaining: 42%
BTK C481S
  DC50: 3.1 nM

## CN1CCN([C@@H]2CCCN(c3cnc(C(N)=O)c(Nc4ccc(C5(C)CCN(C[C@H]6CCN(c7ccc8c(c7)C(=O)N(C7CCC(=O)NC7=O)C8=O)C6)CC5)cc4)n3)C2)C1=O (some centres unmarked) [Compound 71]
[1]; read-out: CD69 EC50
  EC50: 1 nM
[1]; read-out: CD86 EC50
  EC50: 2 nM
BTK; [8]
  % BTK Remaining: 27%

## NC(=O)c1ncc(N2CCC[C@@H](N3CCOC3=O)C2)nc1Nc1ccc(C2CCN(C[C@H]3CCN(c4ccc5c(c4)C(=O)N(C4CCC(=O)NC4=O)C5=O)C3)CC2)cc1 (some centres unmarked) [Compound 73]
[4]; 1 mg/kg IV
  AUC: 0.6 µM·h
  clearance: 33.8 mL/min/kg
  Vd: 3.4 L/kg
[4]; 10 mg/kg PO
  AUC: 2.9 µM·h
  bioavailability: 47%
[1]; read-out: CD69 EC50
  EC50: ~0.2 nM
[1]; read-out: CD86 EC50
  EC50: 0.2 nM
TMD8 C481S cells
  EC50: 0.054 nM
  EMAX (% viable cells): 19%
BTK; [8]
  % BTK Remaining: 26%
TMD8 cells
  EC50: 0.004 nM
  EMAX (% viable cells): 25%
BTK C481S
  DC50: 1.2 nM

## CN1CCN([C@H]2CCCN(c3cnc(C(N)=O)c(Nc4cnn(C5CCN(CC6CN(c7ccc8c(c7)C(=O)N(C7CCC(=O)NC7=O)C8=O)C6)CC5)c4)n3)C2)C1=O (some centres unmarked) [Compound 78]
Primary human T cells [2]; 1.4 nM
  CD25 Staining Anti-CD3/Anti-CD28 Stimulation: 0.99
  CD69 Staining Anti-CD3/Anti-CD28 Stimulation: 1.00
Primary human T cells [2]; 37 nM
  CD25 Staining Anti-CD3/Anti-CD28 Stimulation: 0.73
  CD69 Staining Anti-CD3/Anti-CD28 Stimulation: 0.66
Primary human T cells [2]; 333 nM
  CD25 Staining Anti-CD3/Anti-CD28 Stimulation: 0.44
  CD69 Staining Anti-CD3/Anti-CD28 Stimulation: 0.43
Primary human T cells [3]; [5]
  IL-2 Secretion Anti-CD3/Anti-CD28 Stimulation: 1.00
Primary human T cells [3]; [6]
  IL-2 Secretion Anti-CD3/Anti-CD28 Stimulation: 1.17
Primary human T cells [3]; [7]
  IL-2 Secretion Anti-CD3/Anti-CD28 Stimulation: 1.20
TMD8 C481S cells
  EC50: 7.19 nM
  EMAX (% viable cells): 37%
BTK; oral dose 3 mg/kg, 6 h, blood, flow cytometry
  % BTK Remaining: 74%
TMD8 cells
  EC50: 9.04 nM
  EMAX (% viable cells): 41%
